Assay results: patent US20030129222A1, “Liposomal imexon” (priority 2000, published 2003)
pIC50: −log10 of the molar value.

Test system: WiDr colon, res
Experiment: Cytotoxicity in tumor cell culture, SRB assay
Assay type: cell-based
Conditions: multidrug-resistant; read-out: IC50 against human mouse tumors, WiDr colon res
Source text: (§1) Relative potencies of the N-substituted 2-cyanoaziridine-1-carboxamides in a panel of tumor cell cultures are compared in Table 3. This panel includes the following lines of human tumor cells: sensitive and imexon-resistant lines of multiple myeloma (Matsuoka et al., 1967); ovarian carcinoma resistant to standard drugs (Hamilton et al., 1984); melanoma with a slow growth fraction (Girard et al., 1973); breast carcinoma including sensitive, doxorubicin-resistant (P-glycoprotein-positive) (Taylor et al., 1991), and mitoxantrone-resistant (P-glycoprotein-negative) (Futscher et al., 1994) lines; sensitive and multidrug-resistant colon carcinoma (Noguchi et al., 1979; Dalton et al., 1988); and multidrug-resistant lung carcinoma (P-glycoprotein-negative) (Girard et al., 1973). It also has sensitive (Goldin et al., 1961) and multidrug-resistant (P-glycoprotein-positive) (Salmon and Hersh, 1994) murine L1210 leukemia cells.

Compound	pIC50
N#CC1CN1C(=O)Nc1cccnc1 (centres unmarked) [Compound 24, 2-Cyanoaziridine-1-[N-(3-pyridyl)]carboxamide]	4.74
N#CC1CN1C(=O)NCc1ccccc1 (centres unmarked) [Compound 11, 2-Cyanoaziridine-1-(N-benzyl) carboxamide]	5.00
N#CC1CN1C(=O)Nc1cccc2ccccc12 (centres unmarked) [Compound 23, 2-Cyanoaziridine-1-[N-(1-naphthyl)]carboxamide]	5.60
N#CC1CN1C(=O)Nc1ccc([N+](=O)[O-])cc1 (centres unmarked) [Compound 16, 2-Cyanoaziridine-1-[N-(4-nitrophenyl)]carboxamide]	5.43

Test system: WiDr colon, Sens
Experiment: Cytotoxicity in tumor cell culture, SRB assay
Assay type: cell-based
Conditions: read-out: IC50 against human mouse tumors, WiDr colon Sens
Source text: as §1

Compound	pIC50
N#CC1CN1C(=O)Nc1cccnc1 (centres unmarked) [Compound 24, 2-Cyanoaziridine-1-[N-(3-pyridyl)]carboxamide]	5.22
N#CC1CN1C(=O)NCc1ccccc1 (centres unmarked) [Compound 11, 2-Cyanoaziridine-1-(N-benzyl) carboxamide]	5.28
N#CC1CN1C(=O)Nc1cccc2ccccc12 (centres unmarked) [Compound 23, 2-Cyanoaziridine-1-[N-(1-naphthyl)]carboxamide]	5.62
N#CC1CN1C(=O)Nc1ccc([N+](=O)[O-])cc1 (centres unmarked) [Compound 16, 2-Cyanoaziridine-1-[N-(4-nitrophenyl)]carboxamide]	5.37

Test system: 8226 myeloma, Res (imexon-resistant)
Experiment: Cytotoxicity in tumor cell culture, SRB assay
Assay type: cell-based
Conditions: line made resistant to imexon; read-out: IC50 against human mouse tumors, 8226 myeloma Res
Source text: as §1

Compound	pIC50
N#CC1CN1C(=O)Nc1cccnc1 (centres unmarked) [Compound 24, 2-Cyanoaziridine-1-[N-(3-pyridyl)]carboxamide]	4.82
N#CC1CN1C(=O)NCc1ccccc1 (centres unmarked) [Compound 11, 2-Cyanoaziridine-1-(N-benzyl) carboxamide]	4.96
N#CC1CN1C(=O)Nc1cccc2ccccc12 (centres unmarked) [Compound 23, 2-Cyanoaziridine-1-[N-(1-naphthyl)]carboxamide]	5.05
N#CC1CN1C(=O)Nc1ccc([N+](=O)[O-])cc1 (centres unmarked) [Compound 16, 2-Cyanoaziridine-1-[N-(4-nitrophenyl)]carboxamide]	5.07

Test system: not given
Experiment: not given
Conditions: multiple myeloma, oral administration; cited from earlier work

Compound	patients showing a favorable response
N[C@@H](Cc1ccc(N(CCCl)CCCl)cc1)C(=O)O [Melphalan, 4-[bis(2-chloroethyl)amino]-L-phenylalanine]	one third to one half

Same assay, conditions: previously untreated chronic myelogenous leukemia; cited from earlier work

Compound	adults obtaining hematologic remission
CS(=O)(=O)OCCCCOS(C)(=O)=O [Busulfan, 1,4-butanediol dimethanesulfonate]	Approximately 90%

Test system: L1210 leukemia, Mdr
Experiment: Cytotoxicity in tumor cell culture, MTT assay
Assay type: cell-based, murine
Conditions: MTT assay, multidrug-resistant; read-out: IC50 against human mouse tumors, L1210 leukemia Mdr
Source text: as §1

Compound	pIC50
N#CC1CN1C(=O)Nc1cccnc1 (centres unmarked) [Compound 24, 2-Cyanoaziridine-1-[N-(3-pyridyl)]carboxamide]	4.80
N#CC1CN1C(=O)NCc1ccccc1 (centres unmarked) [Compound 11, 2-Cyanoaziridine-1-(N-benzyl) carboxamide]	5.00
N#CC1CN1C(=O)Nc1cccc2ccccc12 (centres unmarked) [Compound 23, 2-Cyanoaziridine-1-[N-(1-naphthyl)]carboxamide]	5.60
N#CC1CN1C(=O)Nc1ccc([N+](=O)[O-])cc1 (centres unmarked) [Compound 16, 2-Cyanoaziridine-1-[N-(4-nitrophenyl)]carboxamide]	5.59

Test system: L1210 leukemia, Sens
Experiment: Cytotoxicity in tumor cell culture, MTT assay
Assay type: cell-based, murine
Conditions: MTT assay; read-out: IC50 against human mouse tumors, L1210 leukemia Sens
Source text: as §1

Compound	pIC50
N#CC1CN1C(=O)Nc1cccnc1 (centres unmarked) [Compound 24, 2-Cyanoaziridine-1-[N-(3-pyridyl)]carboxamide]	4.96
N#CC1CN1C(=O)NCc1ccccc1 (centres unmarked) [Compound 11, 2-Cyanoaziridine-1-(N-benzyl) carboxamide]	5.42
N#CC1CN1C(=O)Nc1cccc2ccccc12 (centres unmarked) [Compound 23, 2-Cyanoaziridine-1-[N-(1-naphthyl)]carboxamide]	5.14
N#CC1CN1C(=O)Nc1ccc([N+](=O)[O-])cc1 (centres unmarked) [Compound 16, 2-Cyanoaziridine-1-[N-(4-nitrophenyl)]carboxamide]	5.59

Test system: MCF7 breast, Dox (doxorubicin-resistant)
Experiment: Cytotoxicity in tumor cell culture, SRB assay
Assay type: cell-based, human
Conditions: doxorubicin-resistant; read-out: IC50 against human mouse tumors, MCF7 breast Dox
Source text: as §1

Compound	pIC50
N#CC1CN1C(=O)Nc1cccnc1 (centres unmarked) [Compound 24, 2-Cyanoaziridine-1-[N-(3-pyridyl)]carboxamide]	5.18
N#CC1CN1C(=O)NCc1ccccc1 (centres unmarked) [Compound 11, 2-Cyanoaziridine-1-(N-benzyl) carboxamide]	5.22
N#CC1CN1C(=O)Nc1cccc2ccccc12 (centres unmarked) [Compound 23, 2-Cyanoaziridine-1-[N-(1-naphthyl)]carboxamide]	5.77
N#CC1CN1C(=O)Nc1ccc([N+](=O)[O-])cc1 (centres unmarked) [Compound 16, 2-Cyanoaziridine-1-[N-(4-nitrophenyl)]carboxamide]	5.52

Test system: MCF7 breast, mitox (mitoxantrone-resistant)
Experiment: Cytotoxicity in tumor cell culture, SRB assay
Assay type: cell-based, human
Conditions: mitoxantrone-resistant; read-out: IC50 against human mouse tumors, MCF7 breast mitox
Source text: as §1

Compound	pIC50
N#CC1CN1C(=O)Nc1cccnc1 (centres unmarked) [Compound 24, 2-Cyanoaziridine-1-[N-(3-pyridyl)]carboxamide]	5.27
N#CC1CN1C(=O)NCc1ccccc1 (centres unmarked) [Compound 11, 2-Cyanoaziridine-1-(N-benzyl) carboxamide]	5.47
N#CC1CN1C(=O)Nc1cccc2ccccc12 (centres unmarked) [Compound 23, 2-Cyanoaziridine-1-[N-(1-naphthyl)]carboxamide]	5.70
N#CC1CN1C(=O)Nc1ccc([N+](=O)[O-])cc1 (centres unmarked) [Compound 16, 2-Cyanoaziridine-1-[N-(4-nitrophenyl)]carboxamide]	5.52

Test system: A-549 lung
Experiment: Cytotoxicity in tumor cell culture, SRB assay
Assay type: cell-based, human
Conditions: read-out: IC50 against human mouse tumors, A-549 lung
Source text: as §1

Compound	pIC50
N#CC1CN1C(=O)Nc1cccnc1 (centres unmarked) [Compound 24, 2-Cyanoaziridine-1-[N-(3-pyridyl)]carboxamide]	4.80
N#CC1CN1C(=O)NCc1ccccc1 (centres unmarked) [Compound 11, 2-Cyanoaziridine-1-(N-benzyl) carboxamide]	5.13
N#CC1CN1C(=O)Nc1cccc2ccccc12 (centres unmarked) [Compound 23, 2-Cyanoaziridine-1-[N-(1-naphthyl)]carboxamide]	5.60
N#CC1CN1C(=O)Nc1ccc([N+](=O)[O-])cc1 (centres unmarked) [Compound 16, 2-Cyanoaziridine-1-[N-(4-nitrophenyl)]carboxamide]	5.41

Test system: OVCAR3 ovarian
Experiment: Cytotoxicity in tumor cell culture, SRB assay
Assay type: cell-based, human
Conditions: read-out: IC50 against human mouse tumors, OVCAR3 ovarian
Source text: as §1

Compound	pIC50
N#CC1CN1C(=O)Nc1cccnc1 (centres unmarked) [Compound 24, 2-Cyanoaziridine-1-[N-(3-pyridyl)]carboxamide]	5.00
N#CC1CN1C(=O)NCc1ccccc1 (centres unmarked) [Compound 11, 2-Cyanoaziridine-1-(N-benzyl) carboxamide]	5.30
N#CC1CN1C(=O)Nc1cccc2ccccc12 (centres unmarked) [Compound 23, 2-Cyanoaziridine-1-[N-(1-naphthyl)]carboxamide]	5.23
N#CC1CN1C(=O)Nc1ccc([N+](=O)[O-])cc1 (centres unmarked) [Compound 16, 2-Cyanoaziridine-1-[N-(4-nitrophenyl)]carboxamide]	5.19

Test system: A375 melan
Experiment: Cytotoxicity in tumor cell culture, SRB assay
Assay type: cell-based, human
Conditions: read-out: IC50 against human mouse tumors, A375 melan
Source text: as §1

Compound	pIC50
N#CC1CN1C(=O)Nc1cccnc1 (centres unmarked) [Compound 24, 2-Cyanoaziridine-1-[N-(3-pyridyl)]carboxamide]	4.92
N#CC1CN1C(=O)NCc1ccccc1 (centres unmarked) [Compound 11, 2-Cyanoaziridine-1-(N-benzyl) carboxamide]	4.96
N#CC1CN1C(=O)Nc1cccc2ccccc12 (centres unmarked) [Compound 23, 2-Cyanoaziridine-1-[N-(1-naphthyl)]carboxamide]	5.38
N#CC1CN1C(=O)Nc1ccc([N+](=O)[O-])cc1 (centres unmarked) [Compound 16, 2-Cyanoaziridine-1-[N-(4-nitrophenyl)]carboxamide]	5.41

Test system: MCF7 breast, Sens
Experiment: Cytotoxicity in tumor cell culture, SRB assay
Assay type: cell-based, human
Conditions: read-out: IC50 against human mouse tumors, MCF7 breast Sens
Source text: as §1

Compound	pIC50
N#CC1CN1C(=O)Nc1cccnc1 (centres unmarked) [Compound 24, 2-Cyanoaziridine-1-[N-(3-pyridyl)]carboxamide]	5.38
N#CC1CN1C(=O)NCc1ccccc1 (centres unmarked) [Compound 11, 2-Cyanoaziridine-1-(N-benzyl) carboxamide]	5.13
N#CC1CN1C(=O)Nc1cccc2ccccc12 (centres unmarked) [Compound 23, 2-Cyanoaziridine-1-[N-(1-naphthyl)]carboxamide]	5.70
N#CC1CN1C(=O)Nc1ccc([N+](=O)[O-])cc1 (centres unmarked) [Compound 16, 2-Cyanoaziridine-1-[N-(4-nitrophenyl)]carboxamide]	5.52

Test system: 8226 myeloma, Sens (drug-sensitive)
Experiment: Cytotoxicity in tumor cell culture, SRB assay
Assay type: cell-based, human
Conditions: against sensitive myeloma
Source text: as §1

Compound	Log(1/C)
N#CC1CN1C(=O)Nc1cccnc1 (centres unmarked) [Compound 24, 2-Cyanoaziridine-1-[N-(3-pyridyl)]carboxamide]	4.95
N#CC1CN1C(=O)NCc1ccccc1 (centres unmarked) [Compound 11, 2-Cyanoaziridine-1-(N-benzyl) carboxamide]	5.05
N#CC1CN1C(=O)Nc1cccc2ccccc12 (centres unmarked) [Compound 23, 2-Cyanoaziridine-1-[N-(1-naphthyl)]carboxamide]	5.10
N#CC1CN1C(=O)Nc1ccc([N+](=O)[O-])cc1 (centres unmarked) [Compound 16, 2-Cyanoaziridine-1-[N-(4-nitrophenyl)]carboxamide]	5.04

Same assay, conditions: against sensitive myeloma; values repeated from Table 3 (μM there); read-out: IC50

Compound	IC50
N#CC1CN1C(=O)Nc1cccnc1 (centres unmarked) [Compound 24, 2-Cyanoaziridine-1-[N-(3-pyridyl)]carboxamide]	12 µM
N#CC1CN1C(=O)NCc1ccccc1 (centres unmarked) [Compound 11, 2-Cyanoaziridine-1-(N-benzyl) carboxamide]	9 µM
N#CC1CN1C(=O)Nc1cccc2ccccc12 (centres unmarked) [Compound 23, 2-Cyanoaziridine-1-[N-(1-naphthyl)]carboxamide]	8 µM
N#CC1CN1C(=O)Nc1ccc([N+](=O)[O-])cc1 (centres unmarked) [Compound 16, 2-Cyanoaziridine-1-[N-(4-nitrophenyl)]carboxamide]	9.1 µM

Same assay, conditions: drug-sensitive line; read-out: IC50 against human mouse tumors, 8226 myeloma Sens

Compound	pIC50
N#CC1CN1C(=O)Nc1cccnc1 (centres unmarked) [Compound 24, 2-Cyanoaziridine-1-[N-(3-pyridyl)]carboxamide]	4.92
N#CC1CN1C(=O)NCc1ccccc1 (centres unmarked) [Compound 11, 2-Cyanoaziridine-1-(N-benzyl) carboxamide]	5.05
N#CC1CN1C(=O)Nc1cccc2ccccc12 (centres unmarked) [Compound 23, 2-Cyanoaziridine-1-[N-(1-naphthyl)]carboxamide]	5.10
N#CC1CN1C(=O)Nc1ccc([N+](=O)[O-])cc1 (centres unmarked) [Compound 16, 2-Cyanoaziridine-1-[N-(4-nitrophenyl)]carboxamide]	5.04

Test system: not given
Experiment: not given
Conditions: substituent constant, from Hansch and Leo or calculated using Clog P software; cited from earlier work

Compound	π
N#CC1CN1C(=O)Nc1cccnc1 (centres unmarked) [Compound 24, 2-Cyanoaziridine-1-[N-(3-pyridyl)]carboxamide]	0.32
N#CC1CN1C(=O)NCc1ccccc1 (centres unmarked) [Compound 11, 2-Cyanoaziridine-1-(N-benzyl) carboxamide]	2.50
N#CC1CN1C(=O)Nc1cccc2ccccc12 (centres unmarked) [Compound 23, 2-Cyanoaziridine-1-[N-(1-naphthyl)]carboxamide]	3.32
N#CC1CN1C(=O)Nc1ccc([N+](=O)[O-])cc1 (centres unmarked) [Compound 16, 2-Cyanoaziridine-1-[N-(4-nitrophenyl)]carboxamide]	1.72
